# Data reported in patent publication US8609417B2, “Methods and compositions for stem cell cultures” (The Regents of the University of California, priority 2009, dated 2013).
# Legend:
# hiPS cells [1] = experiment: Cell viability assay under adherence conditions (trypan blue live cell counting); type: cell-based, human; conditions: 10 μM, 24 h after plating 1×10^5 cells/well, n=3
# Experimental: hES or hiPS cells were plated at 1×10^5 cells/well on 12-well plates coated with PDL or Matrigel in mTeSR in the presence or absence of blebbistatin or Y-27632 at various concentrations in triplicates. DMSO (solvent for blebbistatin) was also added in the control condition and found to have no effect on viability. For mES cells, cells were plated under the same condition except for the use of gelatin coating and mES medium. After 24 h, cells were harvested, trypsinized to single cells, and counted by hemocytometer. Cell counting was performed independently by two researchers to confirm the consistency. The same samples were used for TUNEL assay immediately after taking a small fraction of the sample for cell counting.
# hES cells = experiment: Cell-cell contact of hES cells (morphology, cell contact index); type: cell-based, human; conditions: hES cells, 10 μM
# Experimental: Rock and myosin II regulate cell-cell interactions in hES cells. To test whether the observed function of RRM signaling in cell-cell contacts in mES cells is conserved in hES cells, H1 cells grown under the feeder-free condition with Matrigel™ and conditioned medium (CM) (FIG. 3A) were treated with C3 exoenzyme. […] Rock-inhibitor treatment also led to cell adhesion defects although it required a higher concentration (20 μM) than that (10 μM) for mES cells (FIG. 3C). Myosin IIA and IIB were colocalized with cell-cell borders in hES cells, which indicates their potential role in cell-cell adhesions (FIG. 3D).
# [2] = system: hES or hiPS cells grown under the defined condition; experiment: Teratoma formation in SCID/beige mice; type: in vivo, mouse; conditions: cells grown under blebbistatin/PDL for 20 passages, about 2×10^6 cells subcutaneously, 4 to 8 weeks
# Text: All animal-related protocols were approved by Institutional Animal Care and Use Committee. Cells (approximately 2×10^6 cells) grown under defined conditions for multiple passages with occasional freezing and thawing were subcutaneously injected into severe combined immunodeficient (SCID)/beige mice (Charles River Laboratories). After 4 to 8 weeks, the developed teratomas were excised, fixed in 4% paraformaldehyde or 10% formalin, and subjected to histological section preparations.
# hiPS cells [3] = experiment: Defined culture on PDL coating in mTeSR (self-renewal over passages); type: cell-based, human
# Experimental: Cell culture. Two independent hES cell lines, H9 (WiCell) and BGN01 (BresaGen), were examined. hiPS cells used in the study include iPS (Foreskin) Clone 1 (WiCell) and two independently derived hiPS cells from normal human dermal fibroblasts (NHDF) which have been characterized by a series of molecular and functional assays. For the regular feeder-free culture, hES or hiPS cells were grown on Matrigel (BD Biosciences)-coated plates in a defined medium, mTeSR (StemCell Technologies). Cells were regularly passaged by the standard method using dispase (Invitrogen) or trypsin-EDTA (Lonza). General stem cell culture techniques are described in Freshney et al., Culture of Human Stem Cells (Culture of Specialized Cells), John Wiley & Sons, 1992 (the disclosure of which is incorporated herein by reference for all purposes). mES cells used in the experiment include CJ7, E14, RW4 (a parental line of NMHCIIA^−/A^− mES cells), NMHCIIA^−/A^−, and NMHCIIB^−/B^− mES cells. Cells were maintained on either mitotically inactivated mouse embryonic fibroblasts or gelatin (Sigma)-coated dishes with the standard medium in the presence of leukemia inhibitory factor (LIF) at 1400 U/ml (Millipore). For the microscopic or immunofluorescent analysis, cells were plated at approximately 5000-10000 cells/cm^2. For the defined culture, cells were plated at approximately 10000 cells/cm^2 on plates freshly coated with PDL or PDL-precoated plates (BD Bioscience) in mTeSR supplemented with 2.5 to 5 μM of blebbistatin or Y-27632. Medium was changed every day or every other day depending on confluency. Cells were passaged by using trypsin-EDTA every 3 to 4 days.
# hiPS cells and hES cells = experiment: Cell survival / embryoid body formation in low-density suspension culture; type: cell-based, human; conditions: compared with Y27632
# Text: While hiPS and hES cells can form cell aggregates and subsequently grow as embryoid bodies when plated at high densities on non-adhesive culture surfaces such as non-tissue culture-treated plates, they mostly undergo apoptosis when plated at low densities that prevent cells from forming aggregates. This is because human pluripotent stem cells are epithelical cells that are programmed to activate cell death signals upon detachment from culture surface (anoikis).
# hiPS cells [4] = experiment: Clonal assay evaluated by alkaline phosphatase (ALP) assay; type: cell-based, human; conditions: single cell per well, Matrigel-coated 96-well plates, blebbistatin 5 μM, 7 days
# Experimental: hES or hiPS cells in mTeSR supplemented with or without blebbistatin were plated on Matrigel-coated 96-well plates at a single cell per well. Seven days after plating, cells were subjected to alkaline phosphatase assay using Alkaline Phosphatase Detection Kit (Millipore) according to the manufacturer's instruction.
# hiPS and hES cells = experiment: Standard G-banded karyotyping; type: cell-based, human; conditions: cells grown under blebbistatin/PDL for 20 passages
# Experimental: Standard G-banded karyotyping was carried out for each cell line approximately every 10 to 20 passages.
# hiPS cells [5] = experiment: Cell growth assay (population doubling time); type: cell-based, human; conditions: hiPS cells on PDL in mTeSR, compound at 5 μM
# Experimental: For the cell growth assay, hiPS or hES cells were plated at 2.5×10^4 cells/cm^2 on plates coated with PDL or Matrigel in mTeSR in the presence of blebbistatin at 5 μM or Y-27632 at 5 μM (PDL) or in the absence of compounds (Matrigel). Cells were harvested at the indicated time points, stained with trypan blue, and counted by the hemocytometer.
# hiPS cells [6] = experiment: Cell viability under suspension culture; type: cell-based, human; conditions: 2 days
# Experimental: For the evaluation of cell viability under suspension culture, hES or hiPS cells were plated at 5×10^5 in non-tissue culture-treated 6-well plates with non-conditioned standard hESm containing blebbistatin or Y-27632 at different concentrations in triplicates. After 2 days, cells were harvested with trypsinization and extensive trituration by pipetting, and the number of live cells was manually counted by using hemocytometer and trypan blue staining. The cell survival ratio (%) represents the ratio of the number of live cells to the number of cells plated. The same samples were subjected to TUNEL assay for side by side comparison with the data from cell viability assay.
# hiPS cells [7] = experiment: Attachment of hiPS cells on poly-D-lysine (PDL) in mTeSR; type: cell-based, human; conditions: no signs of defects in cell-cell adhesions
# Text: Myosin II controls cell-matrix contacts and detachment-induced apoptosis in hiPS and hiES cells. […] Similar results were obtained from the experiments using hES cells.
compound,measurement,setting,value
"Cc1ccc2c(c1)C(=O)C1(O)CCN(c3ccccc3)C1=N2 (centres unmarked) [blebbistatin, 1-Phenyl-1,2,3,4-tetrahydro-4-hydroxypyrrolo[2,3-b]-7-methylquinolin-4-one]",Number of viable cells,hiPS cells [1]; hiPS cells on Matrigel coating,8.6±0.6×10^4 cells
same,Number of viable cells,hiPS cells [1]; hiPS cells on PDL,7.9±0.6×10^4 cells
same,Effect on cell-cell connections,hES cells,disrupted cell-cell connections
same,Teratoma histology,[2],contain all three germ-layer derived differentiated tissues
same,Growth and cell survival rates compared with Y27632,hiPS cells [3],higher growth and cell survival rates than the cells treated with Y27632
same,Cytokinesis defects such as multinucleated cells,"hiPS cells [3]; 2.5 μM, over 15 passages",without any signs of cytokinesis defects
same,Minimum concentration sufficient for supporting cell-matrix interactions but not affecting cell-cell adhesions,"hiPS cells [3]; PDL-coating, mTeSR",2.5 µM
same,Cell survival in low-density suspension culture,hiPS cells and hES cells,markedly increased cell survival
same,Cloning efficiency (ratio of wells with an ALP-positive colony to wells seeded),hiPS cells [4],29±1.8%
same,Karyotype,hiPS and hES cells,maintain genomic integrity
same,Population doubling time,hiPS cells [5],approximately 32.1 h
same,Effect on survival in suspension culture,"hiPS cells [6]; hPS cells in suspension, various concentrations",higher viability than Y-27632
same,Number of live cells,"hiPS cells [6]; hiPS cells in suspension culture, 10 μM, n=3",1.6±0.12×10^5 cells
same,Minimum concentration supporting attachment of hiPS cells on PDL,hiPS cells [7],2 µM
